Biological target: Tyrosine-protein kinase JAK2 (Homo sapiens, UniProt O60674)
Test: Enzymatic Activity Assay
Method: A testing platform for kinase activity of JAK2 (wild type and V617F mutant type) was established based on Homogeneous Time-Resolved Fluorescence (HTRF) assay, and the activities of the compounds were tested using the platform. The compounds were subjected to three-fold gradient dilutions with 100% DMSO with a starting concentration of 1 mM (11 dilutions in total). 4 μL of each dilution was added to 96 μL of reaction buffer (50 mM HEPES, pH 7.4, 10 mM MgCl2, 1 mM EGTA, 0.01% Tween-20, 0.005% BAS, 2 mM DTT) and mixed homogeneously. […] The mixture was mixed homogeneously by centrifugation. […] The plate was incubated in the incubator for 1 hr, and then the fluorescence values were read on Envision (available from PerkinElmer). […] The enzymatic activity was representd by a ratio of the two readout at the two emission wavelengths.

Tyrosine-protein kinase JAK2, sequence (O60674 whole entry): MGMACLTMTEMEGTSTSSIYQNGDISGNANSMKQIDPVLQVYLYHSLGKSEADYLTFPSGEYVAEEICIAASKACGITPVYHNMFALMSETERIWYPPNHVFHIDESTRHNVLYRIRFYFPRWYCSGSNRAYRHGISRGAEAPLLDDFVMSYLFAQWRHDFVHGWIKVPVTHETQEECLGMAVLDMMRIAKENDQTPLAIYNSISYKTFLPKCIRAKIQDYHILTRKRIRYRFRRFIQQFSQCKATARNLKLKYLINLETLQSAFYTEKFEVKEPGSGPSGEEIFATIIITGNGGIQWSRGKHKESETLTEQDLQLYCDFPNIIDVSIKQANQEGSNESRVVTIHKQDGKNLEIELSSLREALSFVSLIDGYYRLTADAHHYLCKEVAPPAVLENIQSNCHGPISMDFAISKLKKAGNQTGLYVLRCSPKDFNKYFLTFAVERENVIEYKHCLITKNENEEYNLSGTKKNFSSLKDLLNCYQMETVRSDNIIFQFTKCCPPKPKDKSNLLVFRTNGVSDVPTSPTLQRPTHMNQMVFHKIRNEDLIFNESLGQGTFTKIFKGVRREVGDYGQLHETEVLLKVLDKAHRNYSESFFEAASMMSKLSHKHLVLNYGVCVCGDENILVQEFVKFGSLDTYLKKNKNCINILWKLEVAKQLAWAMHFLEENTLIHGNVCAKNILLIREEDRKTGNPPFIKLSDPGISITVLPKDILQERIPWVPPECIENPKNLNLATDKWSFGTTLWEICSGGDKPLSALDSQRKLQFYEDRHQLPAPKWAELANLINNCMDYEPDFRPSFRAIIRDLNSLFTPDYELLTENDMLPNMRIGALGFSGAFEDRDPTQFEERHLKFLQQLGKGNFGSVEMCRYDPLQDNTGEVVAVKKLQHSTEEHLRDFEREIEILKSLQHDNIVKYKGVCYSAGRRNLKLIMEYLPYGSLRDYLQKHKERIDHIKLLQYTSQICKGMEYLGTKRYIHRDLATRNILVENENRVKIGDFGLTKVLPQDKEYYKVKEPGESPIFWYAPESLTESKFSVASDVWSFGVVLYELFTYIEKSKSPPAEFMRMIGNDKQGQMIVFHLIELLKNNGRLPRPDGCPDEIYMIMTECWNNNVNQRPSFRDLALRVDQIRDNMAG

Structure (SMILES) | IC50 [nM]
CS(=O)(=O)Nc1nn(C(CC#N)C2CCCC2)cc1-c1ncnc2[nH]ccc12 (configuration not stated) [US10561657, Example 10] | < 20
NC(=O)CC(C1CCCC1)n1cc(-c2ncnc3[nH]ccc23)c(N)n1 (configuration not stated) [US10561657, Example 2] | < 100

From BindingDB's records for patent US10561657 (Centaurus Biophrama, 2020)
